Test results from PubChem BioAssay AID330 (DTP/NCI, 2004).
Several values for one entry are separate records, joined by “and”; a condition that tells them apart may be missing. Identical values can stand only once. Toxic doses and inconclusive results are not listed.

Tested on: P388 leukemia ip, CD2F1 mice, survival T/C
Experiment: NCI In Vivo Anticancer Drug Screen. Data for tumor model P388 Leukemia (intraperitoneal) in CD2F1 (CDF1) mice
Settings: endpoint: median survival time, higher = longer survival
Summary of the method: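 Mice carrying the transplanted tumor received test compound or vehicle. Survival was recorded in each group, and the value is the treated-group measurement divided by that of the vehicle-treated control group.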

[1] = dose: 50.0 mg/kg/injection, schedule: Q01DX009 (ip), vehicle: Klucel (hydroxypropylcellulose) (HPC)
[2] = dose: 100.0 mg/kg/injection, schedule: Q01DX009 (ip), vehicle: Klucel (hydroxypropylcellulose) (HPC)
[3] = dose: 200.0 mg/kg/injection, schedule: Q01DX009 (ip), vehicle: Klucel (hydroxypropylcellulose) (HPC)
[4] = dose: 25.0 mg/kg/injection, schedule: Q01DX009 (ip), vehicle: saline with Tween-80
[5] = dose: 50.0 mg/kg/injection, schedule: Q01DX009 (ip), vehicle: saline with Tween-80
[6] = dose: 100.0 mg/kg/injection, schedule: Q01DX009 (ip), vehicle: saline with Tween-80
[7] = dose: 200.0 mg/kg/injection, schedule: Q01DX009 (ip), vehicle: saline with Tween-80
[8] = dose: 50.0 mg/kg/injection, schedule: Q01DX005 (ip), vehicle: saline with Tween-80
[9] = dose: 100.0 mg/kg/injection, schedule: Q01DX005 (ip), vehicle: saline with Tween-80
[10] = dose: 200.0 mg/kg/injection, schedule: Q01DX005 (ip), vehicle: saline with Tween-80
[11] = dose: 25.0 mg/kg/injection, schedule: Q01DX009 (ip), vehicle: Klucel (hydroxypropylcellulose) (HPC)
[12] = dose: 100.0 mg/kg/injection, schedule: Q01DX001 (ip), vehicle: saline with Tween-80
[13] = dose: 200.0 mg/kg/injection, schedule: Q01DX001 (ip), vehicle: saline with Tween-80
[14] = dose: 400.0 mg/kg/injection, schedule: Q01DX001 (ip), vehicle: saline with Tween-80
[15] = dose: 50.0 mg/kg/injection, schedule: Q01DX005 (ip), vehicle: Klucel (hydroxypropylcellulose) (HPC)
[16] = dose: 100.0 mg/kg/injection, schedule: Q01DX005 (ip), vehicle: Klucel (hydroxypropylcellulose) (HPC)
[17] = dose: 200.0 mg/kg/injection, schedule: Q01DX005 (ip), vehicle: Klucel (hydroxypropylcellulose) (HPC)
[18] = dose: 60.0 mg/kg/injection, schedule: Q01DX005 (ip), vehicle: saline with Tween-80
[19] = dose: 120.0 mg/kg/injection, schedule: Q01DX005 (ip), vehicle: saline with Tween-80

In the case of `CSc1nc(=O)[nH]nc1SCc1ccccc1`, the T/C [1] is reported as 114 % of control and 120 % of control, the T/C [2] is reported as 101 % of control and 111 % of control and the T/C [3] is reported as 108 % of control and 120 % of control.

With `BrCCc1ccccc1Br` the T/C (dose: 50.0 mg/kg/injection, schedule: Q01DX005 (ip), vehicle: distilled water + alcohol) was 105 % of control, the T/C (dose: 100.0 mg/kg/injection, schedule: Q01DX005 (ip), vehicle: distilled water + alcohol) was 97 % of control and the T/C (dose: 200.0 mg/kg/injection, schedule: Q01DX005 (ip), vehicle: distilled water + alcohol) was 97 % of control.

For `Nc1nc2c(c(=O)[nH]1)N(C=O)C(CNc1ccc(C(=O)N[C@@H](CCC(=O)O)C(=O)O)cc1)CN2` (some centres undefined), the T/C (dose: 125.0 mg/kg/injection, schedule: Q04DX003 (ip), vehicle: saline) was 108 % of control, the T/C (dose: 250.0 mg/kg/injection, schedule: Q04DX003 (ip), vehicle: saline) was 99 % of control and the T/C (dose: 500.0 mg/kg/injection, schedule: Q04DX003 (ip), vehicle: saline) was 99 % of control.

For `CC(=O)OC1C(OC(C)=O)C2C(C)CC3OC(=O)C(C)C3CC2(C)C1OC(C)=O` (centres undefined), the T/C (dose: 6.25 mg/kg/injection, schedule: Q01DX009 (ip), vehicle: saline) was 110 % of control, the T/C (dose: 12.5 mg/kg/injection, schedule: Q01DX009 (ip), vehicle: saline) was 103 % of control and the T/C [4] was 100 % of control (2×) and 123 % of control. The T/C (dose: 25.0 mg/kg/injection, schedule: Q01DX009 (ip), vehicle: saline) was 113 % of control, the T/C [5] was 100 % of control and 121 % of control and 97 % of control and the T/C [6] was 103 % of control and 104 % of control and 93 % of control. The T/C [7] was 96 % of control and the T/C (dose: 400.0 mg/kg/injection, schedule: Q01DX009 (ip), vehicle: saline with Tween-80) was 96 % of control.

`Cc1ccc([Se](=C(C(=O)c2ccccc2)C(=O)c2ccccc2)c2ccc(C)cc2)cc1` was tested, and the T/C (dose: 50.0 mg/kg/injection, schedule: Q01DX009 (ip), vehicle: saline) was 104 % of control, the T/C (dose: 100.0 mg/kg/injection, schedule: Q01DX009 (ip), vehicle: saline) was 100 % of control and the T/C (dose: 200.0 mg/kg/injection, schedule: Q01DX009 (ip), vehicle: saline) was 104 % of control.

For `CCn1c2ccccc2c2cc(N=Nc3ccc(O)c4ccccc34)ccc21`, the T/C [1] was 105 % of control, the T/C [2] was 101 % of control and 106 % of control and the T/C [3] was 100 % of control and 102 % of control.

`Cc1cc(=O)[nH]c2c1ccc1ccccc12` was tested, and the T/C (dose: 100.0 mg/kg/injection, schedule: Q04DX002 (ip), vehicle: saline with Tween-80) was 95 % of control, the T/C (dose: 200.0 mg/kg/injection, schedule: Q04DX002 (ip), vehicle: saline with Tween-80) was 93 % of control and the T/C (dose: 400.0 mg/kg/injection, schedule: Q04DX002 (ip), vehicle: saline with Tween-80) was 99 % of control.

For `CC1=C(O[Si](C)(C)C)CCC1=O`, the T/C [8] was 113 % of control, the T/C [9] was 105 % of control and the T/C [10] was 106 % of control.

For `O=C(O)C[P+](Cc1ccccc1)(c1ccccc1)c1ccccc1`, the T/C [11] was 97 % of control, the T/C [1] was 102 % of control and 113 % of control and the T/C [2] was 101 % of control and 103 % of control. The T/C [3] was 95 % of control.

With `O=C(N/N=C/c1cc(Cl)cc(Cl)c1[O-])c1ccccc1.O=C(N/N=C/c1cc(Cl)cc(Cl)c1[O-])c1ccccc1.[Cu+2]` the T/C [12] was 94 % of control, the T/C [13] was 92 % of control and the T/C [14] was 104 % of control.

In the case of `CCOC(=O)C1=C(O)C(=O)C=C(O)C1=N`, the T/C (dose: 60.0 mg/kg/injection, schedule: Q01DX005 (ip), vehicle: saline) is reported as 94 % of control, the T/C (dose: 120.0 mg/kg/injection, schedule: Q01DX005 (ip), vehicle: saline) is reported as 94 % of control and the T/C (dose: 240.0 mg/kg/injection, schedule: Q01DX005 (ip), vehicle: saline) is reported as 97 % of control.

`CCc1nc(N)nc(N)c1-c1ccc2nnn(O)c2c1` was tested, and the T/C [15] was 98 % of control, the T/C [16] was 96 % of control and the T/C [17] was 105 % of control.

With `COc1ccc(N=N/N=c2\sc3cc(Cl)ccc3n2C)cc1` the T/C (dose: 7.5 mg/kg/injection, schedule: Q01DX005 (ip), vehicle: saline with Tween-80) was 115 % of control, the T/C (dose: 15.0 mg/kg/injection, schedule: Q01DX005 (ip), vehicle: saline with Tween-80) was 113 % of control and 121 % of control and the T/C (dose: 30.0 mg/kg/injection, schedule: Q01DX005 (ip), vehicle: saline with Tween-80) was 115 % of control and 124 % of control. For the same compound, the T/C [18] was 112 % of control.

`CCc1nc(N)nc(N)c1-c1ccc(Cl)c(N)c1` was tested, and the T/C (dose: 3.12 mg/kg/injection, schedule: Q01DX009 (ip), vehicle: distilled water + Tween-80) was 101 % of control, the T/C (dose: 6.25 mg/kg/injection, schedule: Q01DX009 (ip), vehicle: distilled water + Tween-80) was 111 % of control and the T/C (dose: 12.5 mg/kg/injection, schedule: Q01DX009 (ip), vehicle: distilled water + Tween-80) was 110 % of control. The T/C (dose: 25.0 mg/kg/injection, schedule: Q01DX009 (ip), vehicle: distilled water + Tween-80) was 100 % of control, the T/C (dose: 50.0 mg/kg/injection, schedule: Q01DX009 (ip), vehicle: distilled water + Tween-80) was 100 % of control and 111 % of control and the T/C (dose: 100.0 mg/kg/injection, schedule: Q01DX009 (ip), vehicle: distilled water + Tween-80) was 105 % of control. The T/C (dose: 200.0 mg/kg/injection, schedule: Q01DX009 (ip), vehicle: distilled water + Tween-80) was 101 % of control and the T/C (dose: 400.0 mg/kg/injection, schedule: Q01DX009 (ip), vehicle: distilled water + Tween-80) was 118 % of control.

`CC(=O)OC(=O)c1c(OC(C)=O)cc(C)c2c1CC(C1(C)CO1)CC2` (centres undefined) was tested, and the T/C (dose: 1.88 mg/kg/injection, schedule: Q01DX005 (ip), vehicle: Klucel (hydroxypropylcellulose) (HPC)) was 100 % of control, the T/C (dose: 3.75 mg/kg/injection, schedule: Q01DX005 (ip), vehicle: Klucel (hydroxypropylcellulose) (HPC)) was 99 % of control and the T/C (dose: 7.5 mg/kg/injection, schedule: Q01DX005 (ip), vehicle: Klucel (hydroxypropylcellulose) (HPC)) was 100 % of control. The T/C (dose: 15.0 mg/kg/injection, schedule: Q01DX005 (ip), vehicle: Klucel (hydroxypropylcellulose) (HPC)) was 100 % of control and the T/C (dose: 30.0 mg/kg/injection, schedule: Q01DX005 (ip), vehicle: Klucel (hydroxypropylcellulose) (HPC)) was 101 % of control.

In the case of `O=C(CC1=NC2NN(c3ccccc3)C(=O)C2=C1CC(=O)c1ccc([N+](=O)[O-])cc1)c1ccc([N+](=O)[O-])cc1` (centres undefined), the T/C [18] is reported as 99 % of control, the T/C [19] is reported as 105 % of control and the T/C (dose: 240.0 mg/kg/injection, schedule: Q01DX005 (ip), vehicle: saline with Tween-80) is reported as 104 % of control.

For `CN(c1ccccc1)P(=O)(N1CC1)N1CC1`, the T/C (dose: 12.5 mg/kg/injection, schedule: Q01DX009 (ip), vehicle: saline sonified) was 200 % of control, the T/C (dose: 25.0 mg/kg/injection, schedule: Q04DX003 (ip), vehicle: saline with Tween-80) was 160 % of control and 195 % of control and the T/C (dose: 37.5 mg/kg/injection, schedule: Q04DX003 (ip), vehicle: saline with Tween-80) was 186 % of control.

For `CC(C)N(C(C)C)P1(=S)N(C(C)(C)C)N=NN1C(C)(C)C`, the T/C [15] was 91 % of control, the T/C [16] was 101 % of control and the T/C [17] was 91 % of control.

In the case of `CC(O)C(c1ccccc1)S(C)(=O)=O` (centres undefined), the T/C [4] is reported as 101 % of control, the T/C [5] is reported as 110 % of control and the T/C [6] is reported as 116 % of control. For the same compound, the T/C [7] was 113 % of control.

With `CS(=O)(=O)OCC(Cc1ccccc1)N1C(=O)c2ccccc2C1=O` (centres undefined) the T/C [12] was 101 % of control, the T/C [13] was 100 % of control and the T/C [14] was 89 % of control.

In the case of `CSC1=N[N+]2=C(C)c3ccccc3O[B-]2(c2ccccc2)S1` (centres undefined), the T/C [8] is reported as 96 % of control, the T/C [9] is reported as 92 % of control and the T/C [10] is reported as 87 % of control.

`CC(C)C1=CC23CCC4C(C)(C(=O)O)CCCC4(C)C2CC1C1C(=O)N(CCCN(C)C)C(=O)C13` (centres undefined) was tested, and the T/C [18] was 104 % of control and the T/C [19] was 99 % of control.

With `CCCCCCCCCCCCCCCCOS(=O)(=O)O` (tested in a mixture with another compound) the T/C (dose: 20.0 mg/kg/injection, schedule: Q01DX009 (ip), vehicle: saline with Tween-80) was 99 % of control and the T/C (dose: 40.0 mg/kg/injection, schedule: Q01DX009 (ip), vehicle: saline with Tween-80) was 92 % of control.

`C[C@]12CCC[C@@H]3C[C@@]31C[C@@H]([C@@]1(C)CO1)CC2` was tested, and the T/C [11] was 98 % of control and 91 % of control, the T/C [1] was 102 % of control and 106 % of control and the T/C [2] was 102 % of control and 104 % of control and 88 % of control. For the same compound, the T/C [3] was 100 % of control and 120 % of control.

For `CSCC1Cc2ccccc2N=C(c2ccccc2)O1` (centres undefined), the T/C [12] was 100 % of control, the T/C [13] was 97 % of control and the T/C [14] was 100 % of control.
